In PMC4533833 (ACS chemical biology, 2015):
pIC50: −log10 of the molar value. Read-outs that look alike come from different tables or passages of the source.

Assays:
V561M FGFR1 = assay: Intrinsic protein fluorescence quenching titration, V561M FGFR1; assay type: binding, Human; conditions: for fold decrease in affinity (increase in Kd) for V561M relative to WT FGFR1: Kd V561M FGFR1 versus Kd WT FGFR1
FGFR1 [1] = conditions: read-out: IC50 (cells); cited from earlier work
FGFR1 [2] = conditions: read-out: IC50 (enzyme); cited from earlier work

Row | Compound | fold greater loss of affinity for E3810 compared to AZD4547 conferred by the V561M FGFR1 mutation (V561M FGFR1; E3810 versus AZD4547) | fold decrease in affinity (increase in Kd) for V561M relative to WT FGFR1 (V561M FGFR1) [fold] | pIC50 (FGFR1 [1]) | pIC50 (FGFR1 [2])
1 | CNC(=O)c1cccc2cc(Oc3ccnc4cc(OCC5(N)CC5)c(OC)cc34)ccc12 [E3810] | over 150 fold | 5000 |  | 
2 | AZD4547 |  | 32 | 7.92 | 9.70
